Assay results taken from patent US20230203060A1 (GENFLEET THERAPEUTICS (SHANGHAI) INC., priority 2020, published 2023).
pIC50: −log10 of the molar value. Structures can show the parent of a compound that is named as a salt.

Target: T1, KRAS G12C (Homo sapiens, UniProt P01116, G12C)
T1 construct: purchased Reactionbiology
Assay: KRAS G12C NEA-HTRF experiment (SOS1-catalyzed displacement of GDP by GTP)
Type: biochemical
In short: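 His-tagged KRAS G12C preloaded with DY647-GDP was preincubated 15 min at 20 °C with compound, then exchanged with SOS1 (0.2 μM working solution) and GTP (200 μM working solution) for 2 h at 20 °C in the dark. HTRF 665/615 nm ratio with anti-His-Tb was normalised to T0 and no-compound controls; IC50 by four-parameter fit.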

T1 sequence (P01116 1-188 isoform P01116-2 G12C): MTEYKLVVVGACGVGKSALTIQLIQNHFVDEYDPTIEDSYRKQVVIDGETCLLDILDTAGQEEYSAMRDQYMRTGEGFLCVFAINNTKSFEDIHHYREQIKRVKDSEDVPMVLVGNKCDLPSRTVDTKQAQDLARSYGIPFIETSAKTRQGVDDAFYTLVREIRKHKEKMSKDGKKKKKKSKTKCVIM

C=CC(=O)N1CCN2C(=O)c3c(N4CCN(C)C(C)(C)C4)nc(-c4ccccc4F)c(Cl)c3OC[C@H]2C1 [Z463, (R)-8-acryloyl-4-chloro-3-(2-fluorophenyl)-1-(3,3,4-trimethylpiperazin-1-yl)-6,6a,7,8,9,10-hexahydro-12H-pyrazino[2,1-c]pyrido[3,4-f][1,4]oxazepin-12-one, formate]
pIC50: 6.12

C=CC(=O)N1CCN2C(=O)c3c(N4CCN(CC)C[C@@H]4C)nc(-c4c(O)cccc4F)c(Cl)c3OC[C@H]2C1 [Z236]
pIC50: 6.95

C=CC(=O)N1CCN2C(=O)c3c(N4C[C@@H](O)CC4(C)C)nc(-c4c(O)cccc4F)c(Cl)c3OC[C@H]2C1 (single isomer, unassigned) [Z81]
pIC50: 8.22

C=CC(=O)N1CCN2C(=O)c3c(N4C[C@@H](O)C[C@@H]4C)nc(-c4c(O)cccc4F)c(Cl)c3OC[C@H]2C1 [Z260, (6aR)-8-acryloyl-4-chloro-3-(2-fluoro-6-hydroxyphenyl)-1-((2S,4S)-4-hydroxy-2-methylpyrrolidin-1-yl)-6,6a,7,8,9,10-hexahydro-12H-pyrazino[2,1-c]pyrido[3,4-f][1,4]oxazepin-12-one]
pIC50: 7.48

C=CC(=O)N1CCN2C(=O)c3c(N4CC(N(C)CC(F)F)CC4(C)C)nc(-c4ccccc4F)c(Cl)c3OC[C@H]2C1 (some centres unmarked) [Z659]
pIC50: 7.71

C=CC(=O)N1CCN2C(=O)c3c(NC(C)C)nc(-c4c(O)cccc4F)c(Cl)c3OC[C@H]2C1 [Z75, (6aR)-8-acryloyl-4-chloro-1-(isopropylamino)-3-(2-fluoro-6-hydroxyphenyl)-6,6a,7,8,9,10-hexahydro-12H-pyrazino[2,1-c]pyrido[3,4-f][1,4]oxazepin-12-one]
pIC50: 6.86

C=CC(=O)N1CCN2C(=O)c3c(N4CC(=O)N(C)CC4C)nc(-c4c(O)cccc4F)c(Cl)c3OC[C@H]2C1 (single isomer, unassigned) [Z221-2]
pIC50: 6.86

C=CC(=O)N1CCN2C(=O)c3c(N4CC(=O)N(C)CC4C)nc(-c4c(O)cccc4F)c(Cl)c3OC[C@H]2C1 (stereo partly drawn) [Z221, (6aR)-8-acryloyl-4-chloro-1-(2,4-dimethyl-5-oxopiperazin-1-yl)-3-(2-fluoro-6-hydroxyphenyl)-6,6a,7,8,9,10-hexahydro-12H-pyrazino[2,1-c]pyrido[3,4-f][1,4]oxazepin-12-one]
pIC50: 7.44

C=CC(=O)N1CCN2C(=O)c3c(N4CC[C@@H]4C)nc(-c4c(O)cccc4F)c(Cl)c3OC[C@H]2C1 [Z68, (6aR)-8-acryloyl-1-((S)-2-methylazetidin-1-yl)-4-chloro-3-(2-fluoro-6-hydroxyphenyl)-6,6a,7,8,9,10-hexahydro-12H-pyrazino[2,1-c]pyrido[3,4-f][1,4]oxazepin-12-one]
pIC50: 7.06

C=CC(=O)N1CCN2C(=O)c3c(OC4CCN(C)CC4)nc(-c4c(O)cccc4F)c(Cl)c3OC[C@H]2C1 [Z61, (6aR)-8-acryloyl-4-chloro-3-(2-fluoro-6-hydroxyphenyl)-1-((1-methylpiperidin-4-yl)oxy)-6,6a,7,8,9,10-hexahydro-12H-pyrazino[2,1-c]pyrido[3,4-f][1,4]oxazepin-12-one]
pIC50: 6.75

C=CC(=O)N1CCN2C(=O)c3c(NC(C)(C)C)nc(-c4c(O)cccc4F)c(Cl)c3OC[C@H]2C1 [Z69, (6aR)-8-acryloyl-1-(tert-butylamino)-4-chloro-3-(2-fluoro-6-hydroxyphenyl)-6,6a,7,8,9,10-hexahydro-12H-pyrazino[2,1-c]pyrido[3,4-f][1,4]oxazepin-12-one]
pIC50: 7.10

C=CC(=O)N1CCN2C(=O)c3c(N4CC(N(C)C5COC5)CC4(C)C)nc(-c4c(O)cccc4F)c(Cl)c3OC[C@H]2C1 (single isomer, unassigned) [Z331-1]
pIC50: 8.30

C=CC(=O)N1CCN2C(=O)c3c(N4C[C@H](NC)CC4(C)C)nc(-c4ccccc4F)c(Cl)c3OC[C@H]2C1 (single isomer, unassigned) [Z661-2]
pIC50: 6.29

C=CC(=O)N1CCN2C(=O)c3c(N4CCOC5CC54)nc(-c4c(O)cccc4F)c(Cl)c3OC[C@H]2C1 (stereo partly drawn) [Z76, (6aR)-8-acryloyl-4-chloro-1-(2-oxa-5-azabicyclo[4.1.0]heptan-5-yl)-3-(2-fluoro-6-hydroxyphenyl)-6,6a,7,8,9,10-hexahydro-12H-pyrazino[2,1-c]pyrido[3,4-f][1,4]oxazepin-12-one]
pIC50: 6.76

C=CC(=O)N1CCN2C(=O)c3c(N4CCNC(C)C4C)nc(-c4c(O)cccc4F)c(Cl)c3OC[C@H]2C1 (stereo partly drawn) [Z308, (6aR)-8-acryloyl-4-chloro-1-(2,3-dimethylpiperazin-1-yl)-3-(2-fluoro-6-hydroxyphenyl)-6,6a,7,8,9, 10-hexahydro-12H-pyrazino[2,1-c]pyrido[3,4-f][1,4]oxazepin-12-one]
pIC50: 6.78

C=CC(=O)N1CCN2C(=O)c3c(N4CC(N5CCOCC5)CC4(C)C)nc(-c4ccccc4F)c(Cl)c3OC[C@H]2C1 (single isomer, unassigned) [Z468-2]
pIC50: 7.33

C=CC(=O)N1CCN2C(=O)c3c(N4CC(=O)N(C)CC4C)nc(-c4c(O)cccc4F)c(Cl)c3OC[C@H]2C1 (single isomer, unassigned) [Z221-1]
pIC50: 7.85

C=CC(=O)N1CCN2C(=O)c3c(N4CCN(CCO)C[C@@H]4C)nc(-c4c(O)cccc4F)c(Cl)c3OC[C@H]2C1 [Z257, (6aR)-8-acryloyl-4-chloro-3-(2-fluoro-6-hydroxyphenyl)-1-((S)-4-(2-hydroxyethyl)-2-methylpiperazin-1-yl)-6,6a,7 ,8,9,10-hexahydro-12H-pyrazino[2,1-c]pyrido[3,4-f][1,4]oxazepin-12-one]
pIC50: 7.03

C=CC(=O)N1CCN2C(=O)c3c(N4CC(N(C)C5COC5)CC4(C)C)nc(-c4c(O)cccc4F)c(Cl)c3OC[C@H]2C1 (single isomer, unassigned) [Z331-2]
pIC50: 8.15

C=CC(=O)N1CCN2C(=O)c3c(N4C[C@H](O)C[C@@H]4C)nc(-c4c(O)cccc4F)c(Cl)c3OC[C@H]2C1 [Z259, (6aR)-8-acryloyl-4-chloro-3-(2-fluoro-6-hydroxyphenyl)-1-((2S,4R)-4-hydroxy-2-methylpyrrolidin-1-yl)-6,6a,7,8,9,10-hexahydro-12H-pyrazino[2,1-c]pyrido[3,4-f][1,4]oxazepin-12-one]
pIC50: 6.95

C=CC(=O)N1CCN2C(=O)c3c(N4CCN(C)C[C@@H]4C)nc(-c4c(O)cccc4Cl)c(Cl)c3OC[C@H]2C1 (single isomer, unassigned) [Z455-1]
pIC50: 6.16

C=CC(=O)N1CCN2C(=O)c3c(N4C[C@H](N(C)C)CC4(C)C)nc(-c4ccccc4)c(Cl)c3OC[C@H]2C1 (single isomer, unassigned) [Z655-2]
pIC50: 6.89

C=CC(=O)N1CCN2C(=O)c3c(N4CCN(C)C(C)(C)C4)nc(-c4c(O)cccc4F)c(Cl)c3OC[C@H]2C1 [Z261, (6aR)-8-acryloyl-4-chloro-3-(2-fluoro-6-hydroxyphenyl)-1-(3,3,4-trimethylpiperazin-1-yl)-6,6a,7,8,9,10-hexahydro-12H-pyrazino[2,1-c]pyrido[3,4-f][1,4]oxazepin-12-one]
pIC50: 6.82

C=CC(=O)N1CCN2C(=O)c3c(N4CCN(C)C[C@@H]4C)nc(-c4c(O)cccc4Cl)c(Cl)c3OC[C@H]2C1 (single isomer, unassigned) [Z455-2]
pIC50: 7.33

C=CC(=O)N1CCN2C(=O)c3c(N4C[C@H](N(C)CCF)CC4(C)C)nc(-c4ccccc4F)c(Cl)c3OC[C@H]2C1 (single isomer, unassigned) [Z660-2]
pIC50: 7.30

C=CC(=O)N1CCN2C(=O)c3c(N4CCN(C)C(C)C4C)nc(-c4c(O)cccc4F)c(Cl)c3OC[C@H]2C1 (stereo partly drawn) [Z308a, (6aR)-8-acryloyl-4-chloro-3-(2-fluoro-6-hydroxyphenyl)-1-(2,3,4-trimethylpiperazin-1-yl)-6,6a,7,8,9,10-hexahydro-12H-pyrazino[2,1-c]pyrido[3,4-f][1,4]oxazepin-12-one]
pIC50: 6.95

C=CC(=O)N1CCN2C(=O)c3c(N4C[C@H](O)CC4(C)C)nc(-c4c(O)cccc4F)c(Cl)c3OC[C@H]2C1 (single isomer, unassigned) [Z82]
pIC50: 7.36

C=CC(=O)N1CCN2C(=O)c3c(N4CC(O)CC4(C)C)nc(-c4c(O)cccc4F)c(F)c3OC[C@H]2C1 (stereo partly drawn) [Z256, (6aR)-8-acryloyl-4-fluoro-3-(2-fluoro-6-hydroxyphenyl)-1-(4-hydroxy-2,2-dimethylpyrrolidin-1-yl)-6,6a,7,8,9,10-hexahydro-12H-pyrazino[2,1-c]pyrido[3,4-f][1,4]oxazepin-12-one]
pIC50: 7.19

C=CC(=O)N1CCN2C(=O)c3c(C4NCCN5C(=O)CCC45C)nc(-c4c(O)cccc4F)c(Cl)c3OC[C@H]2C1 (stereo partly drawn) [Z337, (6aR)-8-acryloyl-4-chloro-3-(2-fluoro-6-hydroxyphenyl)-1-(8a-methylhexahydropyrrolo[1,2-a]pyrazin-6 (2H)-one-1-yl)-6,6a,7,8,9,10-hexahydro-12H-pyrazino[2,1-c]pyrido[3,4-f][1,4]oxazepin-12-one]
pIC50: 7.24
